Earlier results, collected in patent publication US20200397820A1, “Glycerol Release Promoter” (KOHAKU BIO TECHNOLOGY CO., LTD., priority 2018, published 2020).

System: cultured adipocytes
Details: Patent Literature 10

C[C@@]12C[C@@]3(O)O[C@@H](O1)[C@]1(COC(=O)c4ccccc4)[C@H]3C[C@@]12O[C@@H]1O[C@H](CO)[C@@H](O)[C@H](O)[C@H]1O [Paeoniflorin]
release of glycerol into the culture medium: promotes the release of glycerol
